US20210353706A1, “INHIBITION OF ENDOGENOUS REVERSE TRANSCRIPTASE AND TARGETING OF CELLS FOR PROPHYLAXIS AND THERAPY OF CANCER AND AGING” (Health Research, Inc., priority 2017, published 2021)

How the values were obtained:
[1] = tested on: Th-MYCN transgenic mice (spontaneous neuroblastomas); test: Tumor relapse after chemotherapy in mouse spontaneous neuroblastoma model; type: in vivo
Text: In particular, 100% of Th-MYCN transgenic mice (strain 129X1/SvJ-Tg(TH-MYCN)41Waw/Nci) homozygous for MYCN transgene develop spontaneous neuroblastomas in their abdomens around 30 days of age. Mice carrying this transgene show many of the features of the human childhood disease including sensitivity to conventional treatments. Indicated treatments were started at the times of first appearance of palpable tumors.

[2] = tested on: colorectal cancer cells HCT116; test: Acquisition of PALA-resistant colonies (CAD gene amplification); type: cell-based, human; conditions: for number of PALA resistant colonies: HCT116 grown in presence of indicated non-toxic concentrations of RT inhibitor
Text: Gene amplification can be assessed by measuring the frequency of occurrence of cell variants resistant to N-phosphonoacetyl-L-aspartate (PALA), a small molecule inhibitor of aspartate transcarbamylase of CAD protein essential for UMP biosynthesis. In human cells, PALA resistance is associated almost solely with CAD overexpression due to amplification of the CAD gene. Therefore, this can serve as a quantitative indicator of gene amplification. Usually undetectable in normal cells, gene amplification frequency can be as high as 10-5 in tumor cells. The finding that p53 inactivation and DNA demethylation by decitabine both greatly increase the frequency of gene amplification support the possibility of involvement of retroelements (which are inhibited at the epigenetic level by p53 and DNA methylation) in this process.
Right panel illustrates the data shown in the graph as images of tissue culture plates treated and untreated with RT inhibitors in the presence and in the absence of PALA. Sensitivity of HCT116 cells to RT inhibitors alone were determined using quantitation of adherent cells following 72 hours of incubation in the presence of a range of concentrations of RT inhibitors (curves in the graph with the scale of cell viability shown on the right).

[3] = tested on: HeLa cells; test: Clonogenicity of HeLa cells; type: cell-based; conditions: indicated concentrations of stavudine
[4] = tested on: LINE1 elements; test: LINE1 retrotransposition assay (neo-resistant colonies after reporter plasmid transfection); type: cell-based; conditions: HeLa cells transfected with reporter plasmid
Method: FIG. 2 depicts a work-flow for a LINE1 retrotransposition assay as described in Moran et al. Cell 1996 87(5):917-27 (shown in box to the left).
Retrotransposition assay was performed according to Moran et al. Cell. 1996 87(5):917-27 (scheme shown to the left). HeLa cells were transfected with the reporter plasmid; appearance of neo-resistant colonies is indicative of retrotransposition events. […] It is accordingly expected that other RT inhibitors will have similar utility.

Cc1cn([C@H]2C=C[C@@H](CO)O2)c(=O)[nH]c1=O [stavudine]
antitumor effect of stavudine alone ([1]; 1.5 mg/ml in drinking water, no chemotherapy): no detectable antitumor effect | extension of average tumor-free survival ([1]; continuous stavudine 1.5 mg/ml in drinking water with cyclophosphamide and topotecan): nearly two-fold | proportion of disease free animals with no relapses detected within >100 days of observation ([1]; continuous stavudine with cyclophosphamide and topotecan): significantly increased | number of PALA resistant colonies [2]: greatly decreased | number of PALA resistant colonies ([2]; listed as STV): dramatically reduces | frequency of gene amplification in vitro ([2]; tumor cells in vitro): greatly reduced | effect on clonogenicity of HeLa cells [3]: lack of effect | concentrations at which stavudine is effective in inhibiting LINE1 retrotransposition [4]: above 5 mM
